We go through 12 compounds from patent US12521393B2, “Cytotoxicity targeting chimeras for CCR2-expressing cells” (GLAXOSMITHKLINE INTELLECTUAL PROPERTY DEVELOPMENT LIMITED, priority 2021, dated 2026).

The target in test [1] is anti-cotinine antibody (SEQ ID NO: 11/12, rabbit variable region with human IgG1 Fc DE mutation). As to the kind of experiment: SPR binding of anti-cotinine antibody to ARM compounds, Biacore T200, 37° C. (Example 202). Particulars: SPR Biacore T200, 37° C., pH 7.4, antibody SEQ ID NO: 11/12 captured on protein A; Kd in molar. The essentials: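 Antibody captured on a protein A chip; ARM compounds injected at 100 μL/min (200 s association, 2000 s dissociation), 3-fold 5-point series from 200 nM, at 37 °C in HEPES pH 7.4 buffer with 0.005% P20 and 1% DMSO. Double-referenced sensorgrams fit 1:1 for kon, koff, Kd (koff/kon), residence time (1/koff); pKd averaged across runs.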

Test [2] has as its system endogenous target monocytes in human PBMC. As to the kind of experiment: PBMC ex vivo monocyte depletion flow cytometry assay (Example 200). Type of test: cell-based. Particulars: with anti-cotinine antibody (SEQ ID NO: 11/12), 18-24 hours, EC50 in molar, read-out: Ex Vivo Depletion Assay pEC50 (converted). The essentials:
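Monocyte depletion is reported as pEC50, averaged or given individually across runs, and read by flow cytometry staining CD45, CD14 and CD4 with a viability dye. Compounds, diluted four-fold over 11 points from 1 mM DMSO stocks, were combined with 30 μg/mL Fc-enhanced anti-cotinine antibody and human PBMC, then incubated 18-24 h at 37° C.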

Take `CC(C)N(C)[C@@H]1CC[C@H](N2CC[C@H](Nc3ncnc4ccc(C(F)(F)F)cc34)C2=O)[C@H](NC(=O)CCOCCNC(=O)CCCO[C@H]2CC[C@H](OCCNC(=O)[C@H]3CC(=O)N(C)[C@@H]3c3cccnc3)CC2)C1` [Example 7, (2S,3S)-N-(2-(((1r,4S)-4-(4-((2-(3-(((1R,2S,5R)-5-(Isopropyl(methyl)amino)-2-((S)-2-oxo-3-((6-(trifluoromethyl)quinazolin-4-yl)amino)pyrrolidin-1-yl)cyclohexyl)amino)-3-oxopropoxy)ethyl)amino)-4-oxobutoxy)cyclohexyl)oxy)ethyl)-1-methyl-5-oxo-2-(pyridin-3-yl)pyrrolidine-3-carboxamide]: the “pKd of Antibody for ARM Compound of Formula (I)” value (“pKd of Antibody” for short) in test [1] is on record as 9.2515. Besides, the EC50 in test [2] is 0.501 nM.
On to `CC(C)N(C)[C@@H]1CC[C@H](N2CC[C@H](Nc3ncnc4ccc(C(F)(F)F)cc34)C2=O)[C@H](NC(=O)C2CCC(NC(=O)CCOCCNC(=O)CCOCCNC(=O)[C@H]3CC(=O)N(C)[C@@H]3c3cccnc3)CC2)C1` (stereo partly drawn) [Example 48, (2S,3S)-N-(2-(3-((2-(3-(((1R,4r)-4-(((1R,2S,5R)-5-(Isopropyl(methyl)amino)-2-((S)-2-oxo-3-((6-(trifluoromethyl)quinazolin-4-yl)amino)pyrrolidin-1-yl)cyclohexyl)carbamoyl)cyclohexyl)amino)-3-oxopropoxy)ethyl)amino)-3-oxopropoxy)ethyl)-1-methyl-5-oxo-2-(pyridin-3-yl)pyrrolidine-3-carboxamide], for which the “pKd of Antibody” value in test [1] is reported as 8.975. In addition, the EC50 in test [2] was 2 nM.
On the same counts, the results for `CC(C)N(C)[C@@H]1CC[C@H](N2CC[C@H](Nc3ncnc4ccc(C(F)(F)F)cc34)C2=O)[C@H](NC(=O)[C@H]2CC[C@@H](NC(=O)CCOCCNC(=O)CCNC(=O)CCNC(=O)[C@H]3CC(=O)N(C)[C@@H]3c3cccnc3)CC2)C1` [Example 182, (2S,3S)-N-(3-((3-((2-(3-(((1S,4s)-4-(((1R,2S,5R)-5-(Isopropyl(methyl)amino)-2-((S)-2-oxo-3-((6-(trifluoromethyl)quinazolin-4-yl)amino)pyrrolidin-1-yl)cyclohexyl)carbamoyl)cyclohexyl)amino)-3-oxopropoxy)ethyl)amino)-3-oxopropyl)amino)-3-oxopropyl)-1-methyl-5-oxo-2-(pyridin-3-yl)pyrrolidine-3-carboxamide] are 9.117 and 0.158 nM.
Consider `CC(C)N(C)[C@@H]1CC[C@H](N2CC[C@H](Nc3ncnc4ccc(C(F)(F)F)cc34)C2=O)[C@H](NC(=O)CCOCCNC(=O)CCOCCNC(=O)COCCNC(=O)[C@H]2CC(=O)N(C)[C@@H]2c2cccnc2)C1` [Example 105, (2S,3S)-N-(19-(((1R,2S,5R)-5-(Isopropyl(methyl)amino)-2-((S)-2-oxo-3-((6-(trifluoromethyl)quinazolin-4-yl)amino)pyrrolidin-1-yl)cyclohexyl)amino)-5,12,19-trioxo-3,9,16-trioxa-6,13-diazanonadecyl)-1-methyl-5-oxo-2-(pyridin-3-yl)pyrrolidine-3-carboxamide], for which the “pKd of Antibody” value in test [1] was found to be 9.0705. Besides, in test [2], the EC50 was 0.398 nM.
On to `CC(C)N(C)[C@@H]1CC[C@H](N2CC[C@H](Nc3ncnc4ccc(C(F)(F)F)cc34)C2=O)[C@H](NC(=O)CCOCCOCCOCCOCCOCCOCCNC(=O)[C@H]2CC(=O)N(C)[C@@H]2c2cccnc2)C1` [Example 41, (2S,3S)-N-(21-(((1R,2S,5R)-5-(isopropyl(methyl)amino)-2-((S)-2-oxo-3-((6-(trifluoromethyl)quinazolin-4-yl)amino)pyrrolidin-1-yl)cyclohexyl)amino)-21-oxo-3,6,9,12,15,18-hexaoxahenicosyl)-1-methyl-5-oxo-2-(pyridin-3-yl)pyrrolidine-3-carboxamide], for which the “pKd of Antibody” value in test [1] worked out at 9.3615. The EC50 in test [2] is 2.51 nM.
Take `CC(C)N(C)[C@@H]1CC[C@H](N2CC[C@H](Nc3ncnc4ccc(C(F)(F)F)cc34)C2=O)[C@H](NC(=O)[C@H]2CC[C@@H](NC(=O)CCCO[C@H]3CC[C@H](NC(=O)CCNC(=O)[C@@H]4CC(=O)N(C)[C@H]4c4cccnc4)CC3)CC2)C1` [Example 52, (2S,3S)-N-(3-(((1R,4S)-4-(4-(((1S,4S)-4-(((1R,2S,5R)-5-(Isopropyl(methyl)amino)-2-((S)-2-oxo-3-((6-(trifluoromethyl)quinazolin-4-yl)amino)pyrrolidin-1-yl)cyclohexyl)carbamoyl)cyclohexyl)amino)-4-oxobutoxy)cyclohexyl)amino)-3-oxopropyl)-1-methyl-5-oxo-2-(pyridin-3-yl)pyrrolidine-3-carboxamide]: the “pKd of Antibody” value in test [1] is listed as 9.2545. In addition, in test [2], the EC50 was 0.2 nM.
In the case of `CC(C)N(C)[C@@H]1CC[C@H](N2CC[C@H](Nc3ncnc4ccc(C(F)(F)F)cc34)C2=O)[C@H](NC(=O)[C@H]2CC[C@H](NC(=O)CCCOC[C@H]3CC[C@@H](COCCNC(=O)[C@H]4CC(=O)N(C)[C@@H]4c4cccnc4)CC3)CC2)C1` [Example 57, (2S,3S)-N-(2-(((1S,4R)-4-((4-(((1R,4R)-4-(((1R,2S,5R)-5-(Isopropyl(methyl)amino)-2-((S)-2-oxo-3-((6-(trifluoromethyl)quinazolin-4-yl)amino)pyrrolidin-1-yl)cyclohexyl)carbamoyl)cyclohexyl)amino)-4-oxobutoxy)methyl)cyclohexyl)methoxy)ethyl)-1-methyl-5-oxo-2-(pyridin-3-yl)pyrrolidine-3-carboxamide], the “pKd of Antibody” value in test [1] is reported as 9.685. The EC50 in test [2] was 1.58 nM.
With `CC(C)N(C)[C@@H]1CC[C@H](N2CC[C@H](Nc3ncnc4ccc(C(F)(F)F)cc34)C2=O)[C@H](NC(=O)CCOCCC(=O)N[C@H]2C[C@@H](C(=O)NCCOCCNC(=O)[C@H]3CC(=O)N(C)[C@@H]3c3cccnc3)C2)C1` [Example 186, (2S,3S)-N-(2-(2-((1S,3R)-3-(3-(3-(((1R,2S,5R)-5-(Isopropyl(methyl)amino)-2-((S)-2-oxo-3-((6-(trifluoromethyl)quinazolin-4-yl)amino)pyrrolidin-1-yl)cyclohexyl)amino)-3-oxopropoxy)propanamido)cyclobutane-1-carboxamido)ethoxy)ethyl)-1-methyl-5-oxo-2-(pyridin-3-yl)pyrrolidine-3-carboxamide], in test [1], the “pKd of Antibody” value is recorded as 9.1435. For the same compound, the EC50 in test [2] was 0.316 nM.
As to `CCN1C(=O)C[C@H](C(=O)NCCOCCOCCOCCC(=O)N[C@H]2CC[C@@H](C(=O)N[C@@H]3C[C@H](NC(C)(C)C)CC[C@@H]3N3CC[C@H](Nc4ncnc5ccc(C(F)(F)F)cc45)C3=O)CC2)[C@H]1c1cccnc1` [Example 35, (2S,3S)-N-(2-(2-(2-(3-(((1S,4s)-4-(((1R,2S,5R)-5-(tert-butylamino)-2-((S)-2-oxo-3-((6-(trifluoromethyl)quinazolin-4-yl)amino)pyrrolidin-1-yl)cyclohexyl)carbamoyl)cyclohexyl)amino)-3-oxopropoxy)ethoxy)ethoxy)ethyl)-1-ethyl-5-oxo-2-(pyridin-3-yl)pyrrolidine-3-carboxamide], in test [1], the “pKd of Antibody” value worked out at 9.785. In test [2], the EC50 was 0.631 nM.
For `CC(C)N(C)[C@@H]1CC[C@H](N2CC[C@H](Nc3ncnc4ccc(C(F)(F)F)cc34)C2=O)[C@H](NC(=O)CCOCCC(=O)N[C@H]2C[C@H](C(=O)NCCOCCNC(=O)[C@H]3CC(=O)N(C)[C@@H]3c3cccnc3)C2)C1` [Example 187], in test [1], the “pKd of Antibody” value turned out to be 9.104. The EC50 in test [2] is 0.251 nM.
On to `CC(C)N(C)[C@@H]1CC[C@H](N2CC[C@H](Nc3ncnc4ccc(C(F)(F)F)cc34)C2=O)[C@H](NC(=O)CCOCCNC(=O)[C@H]2CC[C@@H](NC(=O)COCCNC(=O)[C@H]3CC(=O)N(C)[C@@H]3c3cccnc3)CC2)C1` [Example 107, (2S,3S)-N-(2-(2-(((1S,4R)-4-((2-(3-(((1R,2S,5R)-5-(Isopropyl(methyl)amino)-2-((S)-2-oxo-3-((6-(trifluoromethyl)quinazolin-4-yl)amino)pyrrolidin-1-yl)cyclohexyl)amino)-3-oxopropoxy)ethyl)carbamoyl)cyclohexyl)amino)-2-oxoethoxy)ethyl)-1-methyl-5-oxo-2-(pyridin-3-yl)pyrrolidine-3-carboxamide], for which the “pKd of Antibody” value in test [1] is on record as 9.161. Besides, the EC50 in test [2] was 0.2 nM.
On to `CC(C)N(C)[C@@H]1CC[C@H](N2CC[C@H](Nc3ncnc4ccc(C(F)(F)F)cc34)C2=O)[C@H](NC(=O)[C@H]2CC[C@@H](NC(=O)CCOCCOCCNC(=O)CNC(=O)[C@H]3CC(=O)N(C)[C@@H]3c3cccnc3)CC2)C1` [Example 63, (2S,3S)-N-(2-((2-(2-(3-(((1S,4s)-4-(((1R,2S,5R)-5-(Isopropyl(methyl)amino)-2-((S)-2-oxo-3-((6-(trifluoromethyl)quinazolin-4-yl)amino)pyrrolidin-1-yl)cyclohexyl)carbamoyl)cyclohexyl)amino)-3-oxopropoxy)ethoxy)ethyl)amino)-2-oxoethyl)-1-methyl-5-oxo-2-(pyridin-3-yl)pyrrolidine-3-carboxamide], for which the “pKd of Antibody” value in test [1] amounted to 8.674. Moreover, the EC50 in test [2] is 0.631 nM.
